Results on 6 cell lines are retold here after the supplement of paper PMC10307832.

Holding throughout (assay): relative viability (nuclei count vs DMSO), 5 days (fraction); higher = more cells survive
Compound in the experiment “Doramapimod + Decitabine”: Cc1ccc(-n2nc(C(C)(C)C)cc2NC(=O)Nc2ccc(OCCN3CCOCC3)c3ccccc23)cc1 [Doramapimod] + Nc1ncn([C@H]2C[C@H](O)[C@@H](CO)O2)c(=O)n1 [Decitabine] (partner 2 µM)
The method in brief: (§1)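 Values are medians from duplicate plates. Each reflects relative viability, defined as the nuclei count of treated wells over that of vehicle wells. Lung cancer cell lines in 1536-well plates were pin-tool dosed one day after seeding with one drug alone or with a fixed anchor-drug dose plus five library-drug doses (not always all listed) in √10 steps, then fixed, stained and imaged at 4× after 5 days.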

Compound in the experiment “RAF265 + Bortezomib”: Cn1c(Nc2ccc(C(F)(F)F)cc2)nc2cc(Oc3ccnc(-c4ncc(C(F)(F)F)[nH]4)c3)ccc21 [RAF265] + CC(C)C[C@H](NC(=O)[C@H](Cc1ccccc1)NC(=O)c1cnccn1)B(O)O [Bortezomib] (partner 0.002 µM)
Put shortly:
as §1

Compound in the experiment “Doramapimod + Vorinostat”: Cc1ccc(-n2nc(C(C)(C)C)cc2NC(=O)Nc2ccc(OCCN3CCOCC3)c3ccccc23)cc1 [Doramapimod] + O=C(CCCCCCC(=O)Nc1ccccc1)NO [Vorinostat] (partner 1 µM)
The method in brief: as §1

Compound in the experiment “IPA-3 + Luminespib”: C1=CC=C2C(=C1)C=CC(=C2SSC3=C(C=CC4=CC=CC=C43)O)O [IPA-3] + CCNC(=O)c1noc(-c2cc(C(C)C)c(O)cc2O)c1-c1ccc(CN2CCOCC2)cc1 [Luminespib] (partner 0.01 µM)
Put shortly:
as §1

In the case of NCI-H3122, the relative viability in the experiment with Doramapimod + Decitabine (first compound 0.02 µM) stood at 0.427; with Doramapimod + Decitabine (first compound 0.06325 µM) it was 0.445; with Doramapimod + Decitabine (first compound 0.2 µM) it was 0.394; with Doramapimod + Decitabine (first compound 0.6325 µM), 0.491; in the experiment with Doramapimod + Decitabine (first compound 2 µM), 0.415; in the experiment with RAF265 + Bortezomib (first compound 0.01 µM), 0.955. Besides, the relative viability with RAF265 + Bortezomib (first compound 0.03162 µM) was found to be 1.02; with RAF265 + Bortezomib (first compound 0.1 µM), 1.07; with RAF265 + Bortezomib (first compound 0.3162 µM) it was 1.04; in the experiment with RAF265 + Bortezomib (first compound 1 µM), 0.922; in the experiment with Doramapimod + Vorinostat (first compound 0.02 µM), 1.13; in the experiment with Doramapimod + Vorinostat (first compound 0.06325 µM) it was 1.07. Further, the relative viability with Doramapimod + Vorinostat (first compound 0.2 µM) was determined as 1.12; with Doramapimod + Vorinostat (first compound 0.6325 µM), 0.849; in the experiment with Doramapimod + Vorinostat (first compound 2 µM) it was 0.859; with IPA-3 + Luminespib (first compound 0.2 µM), 0.0957; with IPA-3 + Luminespib (first compound 0.6325 µM), 0.0861; with IPA-3 + Luminespib (first compound 2 µM) it was 0.108. The relative viability with IPA-3 + Luminespib (first compound 6.325 µM) stood at 0.074; with IPA-3 + Luminespib (first compound 20 µM), 0.116.
In the case of PC-3 [JPC-3], the relative viability with Doramapimod + Decitabine (first compound 0.02 µM) stood at 0.834; in the experiment with Doramapimod + Decitabine (first compound 0.06325 µM), 0.816; with Doramapimod + Decitabine (first compound 0.2 µM) it was 0.857; with Doramapimod + Decitabine (first compound 0.6325 µM) it was 0.888; with Doramapimod + Decitabine (first compound 2 µM) it was 0.766; in the experiment with RAF265 + Bortezomib (first compound 0.01 µM), 0.751. For the same cell line, the relative viability came out at 0.815 in the experiment with RAF265 + Bortezomib (first compound 0.03162 µM); 0.834 in the experiment with RAF265 + Bortezomib (first compound 0.1 µM); 0.393 with RAF265 + Bortezomib (first compound 0.3162 µM); 0.731 with RAF265 + Bortezomib (first compound 1 µM); 0.967 with Doramapimod + Vorinostat (first compound 0.02 µM); 1.39 with Doramapimod + Vorinostat (first compound 0.06325 µM). In addition, the relative viability with Doramapimod + Vorinostat (first compound 0.2 µM) came to 1.22; with Doramapimod + Vorinostat (first compound 0.6325 µM), 0.564; with Doramapimod + Vorinostat (first compound 2 µM) it was 0.744; with IPA-3 + Luminespib (first compound 0.2 µM), 0.742; in the experiment with IPA-3 + Luminespib (first compound 0.6325 µM), 0.666; in the experiment with IPA-3 + Luminespib (first compound 2 µM), 0.719. For the same cell line, the values for the relative viability with IPA-3 + Luminespib (first compound 6.325 µM) and with IPA-3 + Luminespib (first compound 20 µM) were 0.641 and 0.801, respectively.
In the case of PC-14, the relative viability was 0.261 with Doramapimod + Decitabine (first compound 0.02 µM); 0.22 with Doramapimod + Decitabine (first compound 0.06325 µM); 0.215 with Doramapimod + Decitabine (first compound 0.2 µM); 0.277 in the experiment with Doramapimod + Decitabine (first compound 0.6325 µM); 0.197 with Doramapimod + Decitabine (first compound 2 µM); 0.798 with RAF265 + Bortezomib (first compound 0.01 µM). The relative viability in the experiment with RAF265 + Bortezomib (first compound 0.03162 µM) is 0.726; with RAF265 + Bortezomib (first compound 0.1 µM), 0.886; in the experiment with RAF265 + Bortezomib (first compound 0.3162 µM), 0.953; in the experiment with RAF265 + Bortezomib (first compound 1 µM), 0.693; with Doramapimod + Vorinostat (first compound 0.02 µM) it was 0.802; in the experiment with Doramapimod + Vorinostat (first compound 0.06325 µM) it was 0.751. The relative viability was 0.727 in the experiment with Doramapimod + Vorinostat (first compound 0.2 µM); 0.898 in the experiment with Doramapimod + Vorinostat (first compound 0.6325 µM); 0.578 with Doramapimod + Vorinostat (first compound 2 µM); 0.165 with IPA-3 + Luminespib (first compound 0.2 µM); 0.151 with IPA-3 + Luminespib (first compound 0.6325 µM); 0.189 in the experiment with IPA-3 + Luminespib (first compound 2 µM). In addition, the relative viability with IPA-3 + Luminespib (first compound 6.325 µM) is 0.161; in the experiment with IPA-3 + Luminespib (first compound 20 µM), 0.142.
As for RERF-LC-KJ, the relative viability with Doramapimod + Decitabine (first compound 0.02 µM) worked out at 0.733; with Doramapimod + Decitabine (first compound 0.06325 µM) it was 0.669; with Doramapimod + Decitabine (first compound 0.2 µM) it was 0.663; with Doramapimod + Decitabine (first compound 0.6325 µM) it was 0.684; with Doramapimod + Decitabine (first compound 2 µM), 0.669; with RAF265 + Bortezomib (first compound 0.01 µM), 1.17. The relative viability in the experiment with RAF265 + Bortezomib (first compound 0.03162 µM) was 1.16; in the experiment with RAF265 + Bortezomib (first compound 0.1 µM) it was 1.07; with RAF265 + Bortezomib (first compound 0.3162 µM), 1.03; with RAF265 + Bortezomib (first compound 1 µM), 0.761; with Doramapimod + Vorinostat (first compound 0.02 µM) it was 0.785; with Doramapimod + Vorinostat (first compound 0.06325 µM), 0.715. In addition, the relative viability in the experiment with Doramapimod + Vorinostat (first compound 0.2 µM) was found to be 0.741; with Doramapimod + Vorinostat (first compound 0.6325 µM) it was 0.427; with Doramapimod + Vorinostat (first compound 2 µM) it was 0.729; with IPA-3 + Luminespib (first compound 0.2 µM), 1.46; with IPA-3 + Luminespib (first compound 0.6325 µM), 1.27; with IPA-3 + Luminespib (first compound 2 µM), 1.29. Besides, the relative viability with IPA-3 + Luminespib (first compound 6.325 µM) is 1.39; in the experiment with IPA-3 + Luminespib (first compound 20 µM), 1.14.
Consider SK-LU-1, for which the relative viability was 0.636 with Doramapimod + Decitabine (first compound 0.02 µM); 0.617 in the experiment with Doramapimod + Decitabine (first compound 0.06325 µM); 0.662 with Doramapimod + Decitabine (first compound 0.2 µM); 0.637 with Doramapimod + Decitabine (first compound 0.6325 µM); 0.592 with Doramapimod + Decitabine (first compound 2 µM); 1.18 with RAF265 + Bortezomib (first compound 0.01 µM). The relative viability in the experiment with RAF265 + Bortezomib (first compound 0.03162 µM) is 1.08; in the experiment with RAF265 + Bortezomib (first compound 0.1 µM) it was 1.09; in the experiment with RAF265 + Bortezomib (first compound 0.3162 µM), 0.453; in the experiment with RAF265 + Bortezomib (first compound 1 µM), 0.512; with Doramapimod + Vorinostat (first compound 0.02 µM), 0.944; with Doramapimod + Vorinostat (first compound 0.06325 µM), 0.75. Also, the relative viability with Doramapimod + Vorinostat (first compound 0.2 µM) is 0.824; with Doramapimod + Vorinostat (first compound 0.6325 µM), 0.933; with Doramapimod + Vorinostat (first compound 2 µM), 0.867; with IPA-3 + Luminespib (first compound 0.2 µM), 0.207; with IPA-3 + Luminespib (first compound 0.6325 µM) it was 0.17; with IPA-3 + Luminespib (first compound 2 µM), 0.225. Besides, the figures for the relative viability with IPA-3 + Luminespib (first compound 6.325 µM) and in the experiment with IPA-3 + Luminespib (first compound 20 µM) were 0.161 and 0.228, respectively.
SW 1573: the relative viability with Doramapimod + Decitabine (first compound 0.02 µM) amounted to 0.506; with Doramapimod + Decitabine (first compound 0.06325 µM), 0.388; with Doramapimod + Decitabine (first compound 0.2 µM), 0.615; with Doramapimod + Decitabine (first compound 0.6325 µM), 0.575; with Doramapimod + Decitabine (first compound 2 µM) it was 0.366; with RAF265 + Bortezomib (first compound 0.01 µM), 1.38. The relative viability turned out to be 0.91 with RAF265 + Bortezomib (first compound 0.03162 µM); 1.17 with RAF265 + Bortezomib (first compound 0.1 µM); 0.873 with RAF265 + Bortezomib (first compound 0.3162 µM); 0.514 with RAF265 + Bortezomib (first compound 1 µM); 0.9 in the experiment with Doramapimod + Vorinostat (first compound 0.02 µM); 0.549 with Doramapimod + Vorinostat (first compound 0.06325 µM). Further, the relative viability came out at 0.581 with Doramapimod + Vorinostat (first compound 0.2 µM); 0.791 in the experiment with Doramapimod + Vorinostat (first compound 0.6325 µM); 0.539 in the experiment with Doramapimod + Vorinostat (first compound 2 µM); 0.139 in the experiment with IPA-3 + Luminespib (first compound 0.2 µM); 0.215 with IPA-3 + Luminespib (first compound 0.6325 µM); 0.459 with IPA-3 + Luminespib (first compound 2 µM). The results for the relative viability in the experiment with IPA-3 + Luminespib (first compound 6.325 µM) and with IPA-3 + Luminespib (first compound 20 µM) were 0.158 and 0.0643, respectively.
